Test results published in the supplement of paper PMC12463676, “Small-molecule dissolution of stress granules by redox modulation benefits ALS models” (Nature Chemical Biology, 2025).

Legend:
[1] = compound: NC(=O)CCCCC1CCSS1 [lipoamide]; assay: thermal stability z-score vs DMSO; higher = more thermally stabilized by treatment; details: HeLa, lipoamide concentration 100 µM
Procedure: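 Cellular thermal proteome profiling in HeLa cells. Cells were treated with 100 µM lipoamide for 1 h, with or without 1 mM arsenate for a further 1 h, then heated to ten temperatures (37-66.3 °C), and soluble protein was quantified by TMT mass spectrometry relative to 0.1% DMSO controls. The thermal stability score (sum of log2 fold changes minus the abundance score) was transformed to a z-score; mean of n = 3 experiments.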

[2] = compound: O=[As]([O-])(O)O.[K+] [potassium arsenate]; assay: as above; details: HeLa; arsenate concentration 1 mM
Procedure: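 Cellular thermal proteome profiling in HeLa cells treated with 1 mM arsenate for 1 h (DMSO pretreatment), heated to ten temperatures (37-66.3 °C). Soluble protein was quantified by TMT mass spectrometry relative to DMSO controls; the thermal stability score was transformed to a z-score; mean of n = 3 experiments.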

[3] = arsenate co-treatment: 1 mM arsenate 1 h
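Further: each temperature applied for 3 min, abundance score taken as mean log2 fold change at the two lowest temperatures, z-score obtained by mean subtraction and division by SD.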

Chain of UniProt Q8IY67 (Q8IY67 whole entry): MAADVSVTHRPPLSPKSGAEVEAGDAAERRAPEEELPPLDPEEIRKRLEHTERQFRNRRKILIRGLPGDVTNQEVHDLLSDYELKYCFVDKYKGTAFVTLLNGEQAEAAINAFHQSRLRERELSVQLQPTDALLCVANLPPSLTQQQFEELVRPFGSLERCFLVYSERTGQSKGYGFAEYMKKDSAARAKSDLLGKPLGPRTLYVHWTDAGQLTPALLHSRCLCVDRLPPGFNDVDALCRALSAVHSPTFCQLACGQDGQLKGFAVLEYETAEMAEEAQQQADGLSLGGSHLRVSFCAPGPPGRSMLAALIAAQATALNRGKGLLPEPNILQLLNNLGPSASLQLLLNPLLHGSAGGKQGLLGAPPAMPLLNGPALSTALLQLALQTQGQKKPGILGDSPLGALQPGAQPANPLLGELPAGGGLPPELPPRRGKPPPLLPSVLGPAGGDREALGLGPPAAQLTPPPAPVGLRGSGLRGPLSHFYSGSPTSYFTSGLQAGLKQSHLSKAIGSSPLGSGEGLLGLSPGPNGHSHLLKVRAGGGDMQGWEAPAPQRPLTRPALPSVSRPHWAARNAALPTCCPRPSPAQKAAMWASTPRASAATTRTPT
Chain of UniProt Q15208 (Q15208 whole entry, looked up): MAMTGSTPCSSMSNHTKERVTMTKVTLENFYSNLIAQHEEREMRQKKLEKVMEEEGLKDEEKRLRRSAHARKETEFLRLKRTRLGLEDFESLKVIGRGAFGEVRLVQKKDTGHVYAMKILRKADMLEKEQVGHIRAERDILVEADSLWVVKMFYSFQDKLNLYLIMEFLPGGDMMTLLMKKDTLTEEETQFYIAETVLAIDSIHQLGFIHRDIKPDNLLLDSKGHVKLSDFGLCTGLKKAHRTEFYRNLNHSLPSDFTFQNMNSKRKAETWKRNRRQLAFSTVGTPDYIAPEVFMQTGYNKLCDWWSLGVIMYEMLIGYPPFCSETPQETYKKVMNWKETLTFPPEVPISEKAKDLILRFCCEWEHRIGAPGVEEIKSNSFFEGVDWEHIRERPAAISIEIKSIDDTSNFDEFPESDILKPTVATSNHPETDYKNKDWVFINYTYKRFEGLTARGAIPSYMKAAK
Chain of UniProt Q9BQA9 (Q9BQA9 whole entry): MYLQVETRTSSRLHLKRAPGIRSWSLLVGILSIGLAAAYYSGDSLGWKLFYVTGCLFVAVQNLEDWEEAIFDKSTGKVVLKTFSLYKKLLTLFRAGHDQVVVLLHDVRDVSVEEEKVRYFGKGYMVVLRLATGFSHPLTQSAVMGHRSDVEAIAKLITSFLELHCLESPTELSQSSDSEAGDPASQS
Chain of UniProt O00231 (O00231 whole entry): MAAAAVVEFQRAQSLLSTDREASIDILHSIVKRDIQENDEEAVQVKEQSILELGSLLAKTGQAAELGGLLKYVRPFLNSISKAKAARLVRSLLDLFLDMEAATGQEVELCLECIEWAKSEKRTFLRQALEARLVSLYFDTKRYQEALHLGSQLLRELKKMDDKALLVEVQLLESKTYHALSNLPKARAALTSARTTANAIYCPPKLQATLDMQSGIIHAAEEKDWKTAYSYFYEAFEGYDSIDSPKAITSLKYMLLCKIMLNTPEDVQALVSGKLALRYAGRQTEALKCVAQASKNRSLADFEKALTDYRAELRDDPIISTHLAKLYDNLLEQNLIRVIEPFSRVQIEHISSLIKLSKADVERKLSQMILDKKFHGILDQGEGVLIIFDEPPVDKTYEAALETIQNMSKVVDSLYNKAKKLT
Chain of UniProt Q9Y2X3 (Q9Y2X3 whole entry): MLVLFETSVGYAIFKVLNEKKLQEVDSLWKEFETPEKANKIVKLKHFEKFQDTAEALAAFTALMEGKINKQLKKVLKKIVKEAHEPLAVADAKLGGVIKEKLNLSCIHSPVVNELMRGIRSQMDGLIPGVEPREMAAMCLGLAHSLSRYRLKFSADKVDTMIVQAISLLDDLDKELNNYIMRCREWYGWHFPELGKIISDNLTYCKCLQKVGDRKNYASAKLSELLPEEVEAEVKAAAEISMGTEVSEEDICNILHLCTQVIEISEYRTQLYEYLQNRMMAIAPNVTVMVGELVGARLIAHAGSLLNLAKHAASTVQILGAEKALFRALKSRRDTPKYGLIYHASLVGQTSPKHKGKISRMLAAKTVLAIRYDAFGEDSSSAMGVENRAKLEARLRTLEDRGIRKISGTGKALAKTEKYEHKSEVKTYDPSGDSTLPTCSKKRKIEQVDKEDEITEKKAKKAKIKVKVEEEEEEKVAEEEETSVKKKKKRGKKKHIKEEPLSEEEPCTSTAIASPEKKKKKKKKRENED
Chain of UniProt Q86Y37 (Q86Y37 whole entry): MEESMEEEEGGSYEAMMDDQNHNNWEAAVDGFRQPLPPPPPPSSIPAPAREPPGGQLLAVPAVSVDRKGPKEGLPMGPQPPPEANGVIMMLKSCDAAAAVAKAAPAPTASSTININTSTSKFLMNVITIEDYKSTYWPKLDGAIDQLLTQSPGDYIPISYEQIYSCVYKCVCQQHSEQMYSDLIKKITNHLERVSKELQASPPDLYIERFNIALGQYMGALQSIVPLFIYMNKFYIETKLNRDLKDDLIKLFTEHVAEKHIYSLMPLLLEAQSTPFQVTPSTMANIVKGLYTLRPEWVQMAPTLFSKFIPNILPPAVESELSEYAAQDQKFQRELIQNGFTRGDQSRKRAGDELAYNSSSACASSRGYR
Chain of UniProt Q8N5I4 (Q8N5I4 whole entry): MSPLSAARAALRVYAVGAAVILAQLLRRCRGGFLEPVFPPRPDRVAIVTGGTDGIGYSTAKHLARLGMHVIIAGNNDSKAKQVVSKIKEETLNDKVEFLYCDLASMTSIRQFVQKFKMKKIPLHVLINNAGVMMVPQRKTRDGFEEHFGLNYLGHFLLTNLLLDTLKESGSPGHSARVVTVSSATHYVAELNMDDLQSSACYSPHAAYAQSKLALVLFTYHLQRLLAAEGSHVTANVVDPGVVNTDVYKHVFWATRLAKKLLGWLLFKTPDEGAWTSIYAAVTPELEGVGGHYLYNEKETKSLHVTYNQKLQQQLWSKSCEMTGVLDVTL
Chain of UniProt Q9Y6D9 (Q9Y6D9 whole entry): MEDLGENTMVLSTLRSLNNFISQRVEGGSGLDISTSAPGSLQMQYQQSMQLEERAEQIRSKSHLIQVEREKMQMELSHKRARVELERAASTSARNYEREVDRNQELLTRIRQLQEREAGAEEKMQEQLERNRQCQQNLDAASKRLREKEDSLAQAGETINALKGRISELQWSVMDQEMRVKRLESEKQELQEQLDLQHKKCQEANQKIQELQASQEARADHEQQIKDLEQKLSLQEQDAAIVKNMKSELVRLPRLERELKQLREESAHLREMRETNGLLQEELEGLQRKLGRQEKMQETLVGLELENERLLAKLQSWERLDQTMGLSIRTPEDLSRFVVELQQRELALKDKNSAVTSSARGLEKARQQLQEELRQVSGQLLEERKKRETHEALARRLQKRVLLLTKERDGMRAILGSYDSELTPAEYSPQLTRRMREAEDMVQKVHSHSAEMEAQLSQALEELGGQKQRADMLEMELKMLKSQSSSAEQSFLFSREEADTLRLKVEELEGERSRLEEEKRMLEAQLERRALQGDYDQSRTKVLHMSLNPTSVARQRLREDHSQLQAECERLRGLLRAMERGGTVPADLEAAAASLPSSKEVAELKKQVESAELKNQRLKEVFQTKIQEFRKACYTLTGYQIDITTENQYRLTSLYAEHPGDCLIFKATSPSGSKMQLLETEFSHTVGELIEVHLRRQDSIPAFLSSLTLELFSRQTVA
Chain of UniProt P51809 (P51809 whole entry): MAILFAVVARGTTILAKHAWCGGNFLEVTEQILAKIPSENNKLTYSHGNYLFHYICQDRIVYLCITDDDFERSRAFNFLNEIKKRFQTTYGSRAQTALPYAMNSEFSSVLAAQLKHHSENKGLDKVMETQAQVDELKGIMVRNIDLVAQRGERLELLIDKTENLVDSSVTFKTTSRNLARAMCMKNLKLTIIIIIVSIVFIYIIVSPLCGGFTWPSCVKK
Chain of UniProt O95229 (O95229 whole entry): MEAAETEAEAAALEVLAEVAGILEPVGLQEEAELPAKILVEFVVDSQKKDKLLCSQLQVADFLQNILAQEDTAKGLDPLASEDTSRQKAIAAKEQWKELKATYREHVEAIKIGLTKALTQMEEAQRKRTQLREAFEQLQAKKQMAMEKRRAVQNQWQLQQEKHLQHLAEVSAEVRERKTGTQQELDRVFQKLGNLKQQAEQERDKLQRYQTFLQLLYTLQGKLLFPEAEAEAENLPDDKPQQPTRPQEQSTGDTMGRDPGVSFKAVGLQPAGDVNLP
Chain of UniProt Q9BWF3 (Q9BWF3 whole entry): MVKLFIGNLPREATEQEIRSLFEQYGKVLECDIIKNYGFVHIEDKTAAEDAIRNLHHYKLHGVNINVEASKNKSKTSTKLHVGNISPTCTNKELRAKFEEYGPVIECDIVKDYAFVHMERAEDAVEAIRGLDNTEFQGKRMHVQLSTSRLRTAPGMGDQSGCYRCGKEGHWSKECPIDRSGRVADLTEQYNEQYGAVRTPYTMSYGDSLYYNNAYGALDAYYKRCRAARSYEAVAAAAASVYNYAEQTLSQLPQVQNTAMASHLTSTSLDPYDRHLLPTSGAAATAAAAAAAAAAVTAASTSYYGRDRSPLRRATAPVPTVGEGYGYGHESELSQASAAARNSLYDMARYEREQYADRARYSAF
Chain of UniProt O75821 (O75821 whole entry): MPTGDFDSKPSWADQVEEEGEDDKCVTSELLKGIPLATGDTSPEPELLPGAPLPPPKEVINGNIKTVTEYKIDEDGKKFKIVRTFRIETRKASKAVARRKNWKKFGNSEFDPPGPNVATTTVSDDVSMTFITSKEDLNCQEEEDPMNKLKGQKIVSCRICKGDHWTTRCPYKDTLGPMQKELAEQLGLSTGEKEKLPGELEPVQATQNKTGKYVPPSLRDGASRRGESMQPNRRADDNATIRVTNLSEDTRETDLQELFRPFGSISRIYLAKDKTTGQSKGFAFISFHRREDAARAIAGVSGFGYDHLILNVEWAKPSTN

Target	thermal stability z-score [1, 3]	thermal stability z-score ([1]; arsenate co-treatment: none)	thermal stability z-score [2]
DHRSX (UniProt Q8N5I4)	0.396	0.418	-0.643
RB1 (UniProt P06400)	0.306	0.229	-0.64
B4GAT1 (UniProt O43505)	-0.309	-0.831	0.0622
TMF1 (UniProt P82094)	-0.551	-0.475	-0.126
KPNA6 (UniProt O60684)	-0.328	-0.314	0.446
ECEL1 (UniProt O95672)	-1.25	-0.891	1.11
NAF1 (UniProt Q96HR8)	0.316	0.23	0.149
RABL2A|RABL2B	0.0788	-0.011	-0.151
DHX8 (UniProt Q14562)	0.819	0.167	0.449
APC (UniProt P25054)	0.728	0.273	0.816
GNA13 (UniProt Q14344)	0.187	0.347	-0.441
PSMD14 (UniProt O00487)	0.501	0.524	-0.0143
CACUL1 (UniProt Q86Y37)	0.0904	0.129	-0.563
ODR4 (UniProt Q5SWX8)	-0.0304	0.112	0.137
STK38 (UniProt Q15208)	-0.703	-0.424	-0.182
CELSR2 (UniProt Q9HCU4)	-1.53	-2.3	-0.894
MAD1L1 (UniProt Q9Y6D9)	2.13	0.887	1.62
B4GALT1 (UniProt P15291)	-0.454	-0.565	0.0478
MYPN (UniProt Q86TC9)	0.126	0.447	0.803
ZWINT (UniProt O95229)	0.0176	-0.0608	0.0525
VPS8 (UniProt Q8N3P4)	-0.0735	-0.283	-0.17
TSEN54 (UniProt Q7Z6J9)	-0.815	0.162	0.795
PLIN3 (UniProt O60664)	0.559	0.461	0.704
CHML (UniProt P26374)	0.57	0.276	-0.161
PPP6C (UniProt O00743)	0.512	0.089	-0.409
DBR1 (UniProt Q9UK59)	0.0885	-0.174	0.5
NFXL1 (UniProt Q6ZNB6)	-0.724	-0.558	-0.813
OXA1L (UniProt Q15070)	-0.709	-0.369	-0.251

Target	thermal stability z-score [1, 3]	thermal stability z-score ([1]; arsenate co-treatment: none)	thermal stability z-score [2]
CUL1 (UniProt Q13616)	0.708	0.275	-0.108
NAA16 (UniProt Q6N069)	0.378	0.394	-0.173
PDLIM1 (UniProt O00151)	0.156	0.134	-0.239
SPAG7 (UniProt O75391)	0.493	0.212	-0.214
RABGAP1 (UniProt Q9Y3P9)	-0.333	-0.253	0.318
RPL14 (UniProt P50914)	0.565	0.492	-1.08
ITPA (UniProt Q9BY32)	0.939	0.734	0.199
NOP58 (UniProt Q9Y2X3)	0.0369	-0.0387	0.471
UniProt E7ENQ6	-0.462	-0.272	0.151
CTSL (UniProt P07711)	-0.924	-0.44	0.977
RBM4 (UniProt Q9BWF3)	0.135	0.129	0.216
LGALS1 (UniProt P09382)	0.596	0.255	-0.756
SORBS3 (UniProt O60504)	-0.117	0.0779	-0.323
CDC45 (UniProt O75419)	0.0843	0.0302	-0.457
HNRNPA1 (UniProt P09651)	-1.06	-1.24	-1.94
PSMD11 (UniProt O00231)	-0.641	-0.384	-0.694
C17ORF62 (UniProt Q9BQA9)	0.898	0.761	1.37
MSN (UniProt P26038)	0.727	0.377	-0.891
PLCD3 (UniProt Q8N3E9)	0.235	0.151	0.0088
RAVER1 (UniProt Q8IY67)	-0.141	-0.0728	-0.162
VAMP7 (UniProt P51809)	-0.512	-0.444	-0.234
FAM173A (UniProt Q9BQD7)	-0.403	-0.6	-0.445
TSR2 (UniProt Q969E8)	0.33	0.0774	0.317
CCT7 (UniProt Q99832)	-0.0924	-0.191	-0.275
ASUN (UniProt Q9NVM9)	0.368	0.404	0.906
RRAS (UniProt P10301)	0.632	0.351	0.844
EIF3G (UniProt O75821)	0.0353	-0.0823	0.711
